From publication PMC12057336 (Antimicrobial Agents and Chemotherapy, 2025)

Columns and labels:
[1] = Pharmacokinetics (plasma, urine) of linezolid and metabolites after i.g. or i.v. linezolid in control, CCl4-induced and 5/6 Nx rats; settings: for AUC(0-inf): AUC0-∞
Source text: The control group rats were intraperitoneally injected with equal volumes of soybean oil. […] The upper and lower poles of the left kidney were removed under urethane anesthesia (1 g/kg; administered by i.p. injection). One week later, the right kidney was completely excised. Rats in the control group underwent a sham operation ([35]). Serum creatinine (CREA), blood urea nitrogen (BUN), aspartate aminotransferase (AST), alanine aminotransferase (ALT), alkaline phosphatase (ALP), lactate dehydrogenase (LDH), and total bilirubin (TBIL) levels were measured using commercial kits (Shanghai Enzyme-linked Biotechnology Co., Ltd., Shanghai, China) according to the protocols described by the manufacturer before pharmacokinetic experiments.
The rats were first divided into two groups: i.v. or i.g. administration groups. These two groups were further divided into the following four subgroups (n = 5): soybean oil-treated control rats, CCl4-induced rats, sham-operated control rats, and 5/6 Nx rats. […] Blood samples (200 µL) were collected from the retro-orbital venous plexus into heparinized tubes at 0 (pre-dose), 0.25, 0.5, 0.75, 1, 2, 3, 4, 6, 8, 12, and 24 h after i.g. administration, and at 0 (pre-dose), 0.083, 0.25, 0.5, 0.75, 1, 2, 3, 4, 6, 8, 12, and 24 h after i.v. administration. Plasma samples were separated by centrifugation at 6,000 × g for 5 min at 4°C and stored at −80°C until further analysis using HPLC.
Chromatographic separation was performed using the SinoPak BEH T-C18 column (4.6 mm × 150 mm, 5 µm, Hi-tech Zone, China) at 35°C. A photodiode array detector was set at a wavelength of 254 nm. The mobile phase consisted of 0.1% (vol/vol) formic acid in water (A) and acetonitrile (B). The gradient conditions were as follows: 0–4.0 min, 14%–86% B; 4.0–5.0 min, […]; 5.0–5.7 min, return to 14% B; 5.7–8.0 min, equilibrium. The flow rate was 1.0 mL/min.
Plasma and tissue homogenate samples (100 µL) were mixed with 10 µL of IS (50.0 mg/L) and 200 µL of acetonitrile, followed by vortex-mixing for 3 min. The mixture was centrifuged at 15,000 × g for 15 min at 4°C. Then, 5 µL of the supernatant was analyzed. The urine samples were diluted and directly injected for measurement.
The area under the plasma concentration-time curve from 0 to infinity (AUC0-∞), time to maximum concentration (tmax), Cmax, t1/2, CL, and Vd were calculated by non-compartmental model analysis using the Phoenix 8.1.0 WinNonlin software (Pharsight Corp, Princeton, NJ, USA). The renal clearance (CLr), in vitro hepatic clearance (CLint, in vitro), and bioavailability (F) were calculated using the following equations:
F (%) = Div×AUC0−∞, ig/Dig×AUC0−∞, iv
Atotal is the total cumulative amount excreted in urine over 24 h. D is the administered dose. The scale factor is 4,680 (10^6 cells/kg). All data are expressed as mean ± standard deviation (SD). Statistical analysis was performed using Student’s two-tailed unpaired t-test or nonparametric Mann-Whitney U test with SPSS Statistics 19.0 (SPSS Inc., Chicago, IL, USA). Statistical significance was set at P < 0.05.

[2] = molecular target: T1, human NTCP (Homo sapiens, UniProt Q14973); assay: Uptake in NTCP-transfected HEK293 cells; settings: 5 µM; 10 min; 37°C; vs mock cells
T1 sequence (Q14973 1-349): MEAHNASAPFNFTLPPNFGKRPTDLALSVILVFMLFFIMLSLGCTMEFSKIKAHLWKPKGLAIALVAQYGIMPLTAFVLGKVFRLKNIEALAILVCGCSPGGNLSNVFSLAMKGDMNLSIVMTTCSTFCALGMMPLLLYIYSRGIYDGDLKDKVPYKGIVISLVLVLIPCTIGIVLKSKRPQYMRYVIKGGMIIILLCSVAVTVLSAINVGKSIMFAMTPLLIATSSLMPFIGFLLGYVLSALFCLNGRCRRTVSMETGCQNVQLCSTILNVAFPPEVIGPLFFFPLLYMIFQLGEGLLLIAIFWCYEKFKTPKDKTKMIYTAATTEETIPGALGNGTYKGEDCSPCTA
Description: OATP1B1-, OATP1B3-, OATP2B1-, NTCP-, OAT1-, and OAT3-transfected HEK293 cells were cultured in DMEM supplemented with 10% FBS, 100 U/mL penicillin-streptomycin at 37°C with 95% relative humidity atmosphere containing 5% CO2. All cells were seeded in 24-well plates at a density of 4 × 10^5 cells/well and cultured for 1–2 days until they reached 80%–90% confluence. Prior to the initiation of uptake studies, the cells were washed twice with HBSS buffer at 37°C. Membrane vesicles were stored at −80°C and thawed at 37°C prior to the initiation of the studies.
All uptake tests were performed in triplicates. The activities of transporter-transfected HEK293 cells were evaluated using relevant positive substrates and inhibitors. E17G (5 µM, OATP1B1 and OATP1B3), ES (2 µM, OATP2B1), ES (5 µM, OAT3), TCA (10 µM, NTCP), and PAH (20 µM, OAT1) were used as substrates of the transporters. The inhibitors for each transporter were rifampicin (200 µM, OATP1B1 and OATP1B3), erlotinib (10 µM, OATP2B1), CsA (20 µM, NTCP), and probenecid (200 µM, OAT1 and OAT3).
The cells were washed three times with ice-cold HBSS buffer. […] The total protein concentration was measured using a BCA Protein Assay Kit. The uptake rates of HEK293-OATP1B1, HEK293-OATP1B3, HEK293-OATP2B1, HEK293-NTCP, HEK293-OAT1, HEK293-OAT3, and mock cells were calculated. […]

[3] = Sprague-Dawley, rat, in vivo, iv
[4] = Sprague-Dawley, rat, in vivo, po, 63 mg/kg

CC(=O)NC[C@H]1CN(c2ccc(N3CCOCC3)c(F)c2)C(=O)O1 [Linezolid]
change of cumulative urinary excretion rate ([1]; 5/6 Nx rats vs control, P < 0.05): significantly decreased | change of cumulative urinary excretion rate ([1]; CCl4-induced rats): no significant changes | decrease of CLr in comparison to sham-operated control rats ([1]; Sprague-Dawley, rat, in vivo): 50.0% | decrease of CL in comparison to soybean oil-treated control rats [1, 3]: 27.0% | decrease of CLr in comparison to sham-operated control rats [1, 3]: 66.7% | AUC(0-inf) ([1]; Sprague-Dawley, rat, in vivo, iv, 25 mg/kg): 69.3 ± 8.67 µg·h/mL | clearance ([1]; Sprague-Dawley, rat, in vivo, iv, 25 mg/kg, CL): 6.17 mL/min/kg | Vd ([1]; Sprague-Dawley, rat, in vivo, iv, 25 mg/kg, Vd): 0.63 ± 0.05 L/kg | decrease of CL in comparison to soybean oil-treated control rats ([1]; Sprague-Dawley, rat, in vivo, po): 13.8% | Tmax [1, 4]: 0.9 ± 0.14 h | tmax [1, 4]: 1.0 h | AUC(0-inf) [1, 4]: 220 ± 27.6 µg·h/mL | CL renal ([1]; Sprague-Dawley, rat, in vivo, po, 63 mg/kg, CLr): 0.333 mL/min/kg | Cmax ([1]; Sprague-Dawley, rat, in vivo, po, 63 mg/kg, Cmax): 35300 ± 1100 ng/mL | half-life ([1]; Sprague-Dawley, rat, in vivo, po, 63 mg/kg, t1/2): 1.84 ± 0.27 h | substrate for NTCP [2]: not a substrate
